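The compound was tested at five concentrations on cells cultured in 96-well plates, with a 48-hour exposure period. GI50 = concentration required for 50% inhibition of growth. At the TGI there is no net growth.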
Key:
Experiment in all cases: NCI-60 cell line screen, 48 h
[1] = system: ACHN renal
[2] = system: CAKI-1 renal
[3] = system: EKVX NSCLC
[4] = system: HCT-15 colon
[5] = system: HS 578T breast
[6] = system: LOX IMVI melanoma
[7] = system: MDA-MB-435
[8] = system: NCI-H460 lung
[9] = system: SK-MEL-5 melanoma
[10] = system: OVCAR-8 ovarian

Compound | TGI [1] [µM] | TGI [2] [µM] | TGI [3] [µM] | TGI [4] [µM] | TGI [5] [µM] | TGI [6] [µM] | TGI [7] [µM] | TGI [8] [µM] | TGI [9] [µM] | GI50 [1] [µM] | GI50 [2] [µM] | GI50 [3] [µM] | GI50 [4] [µM] | GI50 [5] [µM] | GI50 [7] [µM] | GI50 [8] [µM] | GI50 [10] [µM] | TGI [10] [µM] | GI50 [9] [µM] | GI50 [6] [µM]
Cc1ccc(C)c2c(N=Nc3ccccc3[N+](=O)[O-])c(O)[nH]c12 | > 100 | > 100 | > 100 | > 100 | > 100 | > 100 | > 100 | > 100 | > 100 |  |  |  |  |  |  |  |  |  |  | 
COc1cc(NC(C)CCCN)c2ncccc2c1Sc1ccc(Cl)cc1 (centres undefined) | 3.22 | 12.3 | 4.72 | 3.67 | 3.85 |  | 3.57 | 3.22 | 3.09 | 1.79 | 3.13 | 2.14 | 1.89 | 1.67 | 1.86 | 1.8 | 1.64 | 3 | 1.72 | 
Cc1cc2c(=O)cc(-c3ccc(F)cc3)oc2c(C(=O)O)c1C | > 100 | > 100 | > 100 | > 100 |  | > 100 |  | > 100 | > 100 |  |  |  |  |  |  |  |  | > 100 |  | 
COc1ccc(/C(=N/O)c2cc(OC)c(OC)c(OC)c2)c(OC)c1N | > 100 | > 100 | > 100 | > 100 | > 100 | > 100 |  | > 100 | > 100 | 17.8 | 5.53 | 6.64 | 3.87 | 4.74 |  | 3.92 | 9.87 | > 100 | 5.34 | 7.28
CC12CC(Sc3ccccc3N1)c1ccccc1O2 (centres undefined) | 31 | 42.4 | 33.4 | 29.2 |  | 27 |  | 33.2 | 28 |  |  |  |  |  |  |  |  | 33.3 |  | 
O=[N+]([O-])c1ccc(COc2cccc3cccnc23)cc1 | 76.8 | 75 | 70.3 | 25.7 |  | 29.2 |  | 17.2 | 58.4 |  |  |  |  |  |  |  |  | > 100 |  | 
COC(=O)/C(=C\c1c(-c2ccccc2)[nH]c2ccccc12)S(C)(=O)=O | 23.8 | 82.6 | > 100 | 12.1 | > 100 | 17.6 | 4.77 | 14.2 |  | 9.18 | 1.83 | 8.92 | 2.35 | 3.46 | 0.671 | 3.54 | 6.29 | > 100 |  | 5.07
Cc1cnc(SCCN2CCN(C)CC2)nc1-c1cc2ccccc2s1 |  | 16.4 |  | 24.7 |  | 18.6 |  | 14.6 | 14.6 |  |  |  |  |  |  |  |  | 25.8 |  | 
COc1ccc(-c2nc(-c3nc4ccc(C(F)(F)F)cc4[nH]3)c3ccccn23)cc1 | > 100 | > 100 |  | > 100 | > 100 | > 100 | > 100 | > 100 | > 100 | 63.5 | > 100 |  | > 100 | > 100 | 47 | 9.73 | 22.7 | > 100 | 47 | 31.3
CCOP(=O)(CC(=O)C1=C(O)C(CCCCNC(=O)OC(C)(C)C)N(Cc2ccccc2)C1=O)OCC (centres undefined) | > 100 | > 100 | > 100 |  |  | > 100 |  | > 100 | > 100 |  |  |  |  |  |  |  |  | > 100 |  | 
FC(F)(F)c1[nH]ncc1-c1nc2ccc3[nH]ncc3c2c2c1CCCC2 | 9.62 | 10.4 | 7.29 | 10.1 |  | 2.6 | 9.55 | 9.34 | 2.96 | 1.39 | 1.06 | 1.99 | 2.28 |  | 1.78 | 1.72 | 2.63 | 11.9 | 1.55 | 1.09
CN1C(=O)C(=CN(C)c2ccccc2)C(=O)N(C)C1=O | > 100 | > 100 | > 100 | > 100 |  | > 100 |  | > 100 | > 100 |  |  |  |  |  |  |  |  | > 100 |  | 
O=C1c2c(c3c4ccccc4[nH]c3c3[nH]c4ccccc4c23)C(=O)N1Cc1ccccc1 | 11 | 10.2 | 23.7 | 5.91 |  | 8.31 |  | 13.5 | 3.56 |  |  |  |  |  |  |  |  | 13.8 |  | 
CNCCCn1c2c(c3ccc(F)cc3c1=O)C(=O)c1cc(OC)cnc1-2 | 0.362 |  | 1.96 | 3.86 | 16.2 | 0.375 | 1.81 | 0.261 | 1.08 | 0.117 |  | 0.301 | 0.25 | 2.24 | 0.471 | 0.0492 | 0.193 | 1.12 | 0.307 | 0.142
Cc1cc(NS(=O)(=O)c2ccc(NC(=O)COC(=O)c3cccc4c(=O)c5ccccc5[nH]c34)cc2)no1 | > 100 | > 100 | > 100 | > 100 |  | > 100 |  | > 100 | > 100 |  |  |  |  |  |  |  |  | > 100 |  | 
COC1=CC(=O)NCCN1 | > 100 | > 100 | > 100 | > 100 |  | 45.2 |  | 85.9 | > 100 |  |  |  |  |  |  |  |  | > 100 |  | 
Cc1cc(C)c(C(=O)/C=C/c2ccccc2)c(C)c1 | > 100 | > 100 | > 100 | 51.3 |  |  |  | 39.3 | > 100 |  |  |  |  |  |  |  |  | 30 |  | 
CCN(Cc1cccc(F)c1F)c1ccc(CO)c(Cl)c1 | > 51.7 | 5.59 |  | 36.2 | 48.7 | 30.7 | 37.1 | 11 | 23.4 | 17.8 | 0.4 |  | 12.4 | 17.9 | 17.7 | 0.176 | 14.2 | 48.3 | 11.2 | 15.8
CC(C)(C)N=CN(C=C(c1ccccc1)c1ccccc1)C1CCCCC1 | > 100 | > 100 | > 100 | > 100 |  | 92.3 |  | > 100 | 31.8 |  |  |  |  |  |  |  |  | > 100 |  | 

Reference: PubChem BioAssay (NCI)
